From PMC13289949 (Biochemistry, 2025)
Read-outs that look alike come from different tables or passages of the source.

Assays:
MtbFDTS [1] = target: T1, MtbFDTS (Mycobacterium tuberculosis, UniProt P9WG57); assay: MtbFDTS oxidase reaction followed by NADPH consumption; type: biochemical; details: for increase in the rate of NADPH consumption: relative to control without ligand, >10× KACT, up to 250 μM ligand; for effect on the oxidase reaction (NADPH oxidation rate), in words: aerobic, no CH2H4folate, ligand up to 250 μM
T1 sequence (P9WG57 whole entry): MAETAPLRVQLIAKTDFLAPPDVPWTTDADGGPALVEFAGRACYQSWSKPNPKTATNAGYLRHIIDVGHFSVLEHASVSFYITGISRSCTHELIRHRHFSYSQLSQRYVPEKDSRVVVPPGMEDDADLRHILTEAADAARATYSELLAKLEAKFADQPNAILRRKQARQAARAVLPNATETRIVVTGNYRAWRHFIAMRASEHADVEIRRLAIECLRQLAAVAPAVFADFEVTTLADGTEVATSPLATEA

MtbFDTS [2] = target: T1, MtbFDTS; assay: Hydrogen peroxide formation from MtbFDTS oxidase reaction; type: biochemical; details: NADPH and 100 μM plumbagin versus NADPH only
FAD-MtbFDTS complex = FAD-MtbFDTS complex (Mycobacterium tuberculosis, UniProt P9WG57); assay: biochemical; type: binding
Chain of FAD-MtbFDTS complex (P9WG57 whole entry, one chain of several): as the sequence (P9WG57 whole entry) above

For “5-hydroxy-2,4-naphthoquinone [plumbagin]”, the “increase in the rate of NADPH consumption” value (MtbFDTS [1]) was 5–10 fold and the “rate increase of hydrogen peroxide formation (initial velocity)” value (MtbFDTS [2]) was about 10 fold.

`Nc1nc(=O)c2c([nH]1)NCC(CNc1ccc(C(=O)N[C@@H](CCC(=O)O)C(=O)O)cc1)N2C=O` (mixture of isomers) [folinic acid] was tested, and the “effect on the oxidase reaction (NADPH oxidation rate), in words” value (from here on “effect on the oxidase reaction”) (MtbFDTS [1]) was “display inhibition”, the Kd (FAD-MtbFDTS complex; read-out: apparent Kd, binding to the FAD-MtbFDTS complex) was 1300 ± 200 nM and the “affinity of folinic acid for the dUMP-FAD-MtbFDTS ternary complex, in words” value (FAD-MtbFDTS complex; saturating concentration of dUMP, compared with FAD-MtbFDTS) was “much higher affinity”.

With `O=c1[nH]c(=O)n([C@H]2C[C@H](O)[C@@H](COP(=O)(O)O)O2)cc1F` [5-FdUMP, 5-fluoro-deoxyuridylate] the “affinity to the FAD-MtbFDTS complex, in words” value (FAD-MtbFDTS complex; compared with dUMP) was “less affinity”.

With `Cc1cn([C@H]2C[C@H](O)[C@@H](COP(=O)(O)O)O2)c(=O)[nH]c1=O` [dTMP, 2′-deoxythymidine-5′-monophosphate] the “effect on the oxidase reaction” value (MtbFDTS [1]) was “activated”.

In the case of `O=c1ccn([C@H]2C[C@H](O)[C@@H](COP(=O)(O)O)O2)c(=O)[nH]1` [dUMP, 2′-deoxyuridine-5′-monophosphate], the “effect on the oxidase reaction” value (MtbFDTS [1]) is reported as “increase in rate” and the Kd (FAD-MtbFDTS complex) is reported as 1100 ± 500 nM.

With `O=C1C=C(O)C(=O)c2ccccc21` [lawsone, 2-hydroxy-1,4-naphthoquinone] the “increase in the rate of NADPH consumption” value (MtbFDTS [1]) was 5–10 fold.

For `CN(Cc1cnc2nc(N)nc(N)c2n1)c1ccc(C(=O)N[C@@H](CCC(=O)O)C(=O)O)cc1` [methotrexate], the “effect on the oxidase reaction” value (MtbFDTS [1]) was “display inhibition”.
